| SMILES | melting point [°C] |
| --- | --- |
| CCCC(CCC)c1ccc(COc2ccc(-c3csc(CN4CCC(c5ccccc5C(=O)O)CC4)n3)cc2)cc1 [Example 1-164] | 170 to 172 |
| CCCC(CCC)c1ccc(OCc2ccc(-c3csc(CN(CC(=O)O)C(=O)COc4ccc(C)cc4)n3)cc2)cc1 [Example 1-130] | 170 to 172 |
| CCCC(CCC)c1ccc(OCc2ccc(-c3csc(Cn4nc(C(=O)O)cc4C)n3)cc2)cc1 [Example 1-177] | 185 to 194 |
| CCCC(CCC)c1ccc(OCc2ccc(-c3csc(CN4Cc5ccccc5C[C@@H]4C(=O)O)n3)cc2)cc1 [Example 1-47] | 77 to 82 |
| CCCC(CCC)c1ccc(OCc2ccc(-c3csc(CN(CC(=O)O)CC(=O)Nc4ccc(OC)cc4)n3)cc2)cc1 [Example 1-98] | 176.5 |
| CCCC(CCC)N(Cc1ccc(-c2csc(COc3cccc(C(=O)O)c3)n2)cc1)c1ccc(C(C)C)cc1 [Example 1-10] | 127 to 129 |
| CCCC(CCC)c1ccc(N(Cc2ccc(-c3csc(CN(CC(=O)O)S(=O)(=O)N(C)c4ccccc4)n3)cc2)C(C)C)cc1 [Example 1-116] | 146 to 148 |
| CCCC(CCC)c1ccc(OCc2ccc(-c3csc(CN(C)S(=O)(=O)CCCC(=O)O)n3)cc2)cc1 [Example 1-51] | 103.3 to 106.3 |
| CC(C)c1ccc(Cn2c(-c3csc(CN4CCN(c5cccc(C(=O)O)c5)CC4)n3)nc3ccc(N4CCOCC4)cc32)cc1 [Example 1-186] | 128.5 to 131.5 |
| CC(C)CN(Cc1ccc(-c2csc(CN(CC(=O)O)C(=O)c3cccnc3)n2)cc1)c1ccc(C(C)(C)C)cc1 [Example 1-30] | 193 |
| CCCC(CCC)c1ccc(OCc2ccc(-c3csc(CN(CC(=O)O)CC(=O)Nc4ccc(N(C)C)cc4)n3)cc2)cc1 [Example 1-97] | 192.5 |
| CC(C)CN(Cc1ccc(-c2csc(CN(CC(=O)O)C(=O)c3ccccn3)n2)cc1)c1ccc(C(C)(C)C)cc1 [Example 1-29] | 160 |
| CCCC(CCC)c1ccc(CNC(=O)c2ccc(-c3csc(CN(CC(=O)O)Cc4ccccc4)n3)cc2)cc1 [Example 1-55] | 141 to 143 |
| CCCC(CCC)c1ccc(N(Cc2ccc(-c3csc(CN(CC(=O)O)Cc4nc(C)c(C)s4)n3)cc2)C(C)C)cc1 [Example 1-146] | 156 to 157 |
| O=C(O)c1cccc(C2CCN(Cc3nc(-c4ccc(OCc5cc(C(F)(F)F)cc(C(F)(F)F)c5)cc4)cs3)CC2)c1 [Example 1-174] | 222 to 228 |
| CCC(CC)N(Cc1ccc(-c2csc(COc3ccc(C(=O)O)cn3)n2)cc1)c1ccc(C(C)C)cc1 [Example 1-11] | 155 to 157 |
| CCCC(CCC)c1ccc(OCc2ccc(-c3csc(CN(CC(=O)O)CC(=O)Nc4ccccn4)n3)cc2)cc1 [Example 1-100] | 133.5 |

Next, values leading:

| melting point [°C] | SMILES |
| --- | --- |
| 159 to 160 | CN(Cc1ccc(CC(C)(C)C)cc1)c1ccc(-c2csc(CN(CC(=O)O)Cc3ccccc3)n2)cc1 [Example 3-27] |
| 150 to 152 | CC(C)Cc1ccc(CN(C)c2ccc(-c3csc(CN(CC(=O)O)C(=O)Cc4ccc(Cl)cc4)n3)cc2)cc1 [Example 3-57] |
| 132 to 134 | CN(Cc1ccccc1)c1ccc(-c2csc(CN(CC(=O)O)Cc3ccccc3Cl)n2)cc1 [Example 3-50] |
| 160 to 164 | CCC(CC)c1ccc(N(Cc2ccc(-c3ccc(COc4cncc(C(=O)O)c4)s3)cc2)C(C)C)cc1 [Example 4-17] |
| 137 to 140 | CCCC(CCC)c1ccc(CN(CC(=O)O)Cc2nc(-c3ccc(N(C)Cc4ccccc4)cc3)cs2)cc1 [Example 3-48] |
| 152 to 155 | CN(CC(=O)O)Cc1nc(-c2ccc(N(C)Cc3ccc(C4CCCCC4)cc3)cc2)cs1 [Example 3-80] |
| 142 to 144 | CCC(CC)c1ccc(COc2ccc(-c3csc(CN(CC(=O)O)C(=O)c4ccc(C)cc4)n3)cc2)cc1 [Example 3-23] |
| 127 to 130 | CCCC(CCC)c1ccc(COc2ccc(-c3csc(CN4Cc5ccccc5CC4C(=O)O)n3)cc2)cc1 (stereo not drawn) [Example 3-118] |
| 183 to 186 | CN(Cc1ccc(C2CCCCC2)cc1)c1ccc(-c2csc(CNC(C(=O)O)c3ccccc3)n2)cc1 (stereo not drawn) [Example 3-77] |
| 78 to 83 | CN(Cc1ccccc1)c1ccc(-c2csc(CN(CC(=O)O)Cc3cccc4ccccc34)n2)cc1 [Example 3-54] |
| 130 to 132 | CCCC(CCC)c1ccc(COc2ccc(C)cc2-c2csc(CN(C)S(=O)(=O)c3ccc(C(=O)O)cc3)n2)cc1 [Example 3-6] |
| 184 to 187 | CCCC(CCC)c1ccc(COc2ccc(C)cc2-c2csc(CN(C)c3ccc(C(=O)O)cc3)n2)cc1 [Example 3-7] |
| 164 to 166 | CN(Cc1ccc(C2CCCCC2)cc1)c1ccc(-c2csc(CN(C)S(=O)(=O)c3cccc(C(=O)O)c3)n2)cc1 [Example 3-101] |
| 168 to 170 | Cc1ccc(OCc2ccc(C(F)(F)F)cc2)c(-c2csc(CN(CC(=O)O)Cc3ccccc3)n2)c1 [Example 3-8] |
| 114 to 119 | CCC(CC)c1ccc(COc2ccc(-c3csc(CN(CC(=O)O)Cc4cc(C)cc(C)c4)n3)cc2)cc1 [Example 3-18] |
| 175 to 177 | CN(Cc1ccc(CC(C)(C)C)cc1)c1ccc(-c2csc(CN3Cc4ccccc4CC3C(=O)O)n2)cc1 (stereo not drawn) [Example 3-74] |
| 153 to 157 | CC(C)Cc1ccc(CN(C)c2ccc(-c3csc(CN(CC(=O)O)Cc4ccc(Cl)cc4)n3)cc2)cc1 [Example 3-47] |
| 168 to 170 | CC(C)Cc1ccc(CN(C)c2ccc(-c3csc(CN4Cc5ccccc5CC4C(=O)O)n3)cc2)cc1 (stereo not drawn) [Example 3-72] |
| 198 to 200 | O=C(O)CN(CC1CCCCC1)c1nc(-c2nc3ccc(OCc4ccc(Cl)c(Cl)c4)cc3o2)cs1 [Example 3-110] |
| 69 to 72 | CN(Cc1ccccc1)c1ccc(-c2csc(CN(CC(=O)O)Cc3ccc(Cl)c(Cl)c3)n2)cc1 [Example 3-51] |
| 158 to 161 | CN(Cc1ccc(C2CCCCC2)cc1)c1ccc(-c2csc(N(C)Cc3ccc(C(=O)O)o3)n2)cc1 [Example 3-75] |
| 99 to 101 | CCCC(CCC)c1ccc(COc2ccc(-c3csc(CN(CC(=O)O)C(=O)c4ccc(OC)cc4)n3)cc2)cc1 [Example 3-24] |
| 126 to 127 | CCCC(CCC)c1ccc(CN(C)c2ccc(-c3csc(CSc4ccc(C(=O)O)cc4)n3)cc2)cc1 [Example 3-96] |
| 178 to 183 | CN(Cc1ccc(C2CCCCC2)cc1)c1ccc(-c2csc(CN(C)S(=O)(=O)CC(=O)O)n2)cc1 [Example 3-102] |
| 171 to 173 | CN(Cc1ccc(CC(C)(C)C)cc1)c1ccc(-c2csc(CN(C)C(C(=O)O)c3ccccc3)n2)cc1 (stereo not drawn) [Example 3-88] |
| 82 to 87 | CC(C)c1ccc(CN(c2ccc(-c3csc(CN(CC(=O)O)Cc4ccc(C(C)(C)C)cc4)n3)cc2)C(C)C)cc1 [Example 3-46] |
| 170.5 to 171.9 | CCCC(CCC)c1ccc(OCc2ccc(-c3csc(CN(CC(=O)O)Cc4cn(C)c5ccccc45)c3)cc2)cc1 [Example 4-86] |
| 120.7 to 123.3 | CCCCOc1ccc(S(=O)(=O)N(CC)c2ccc(-c3csc(CN(CC(=O)O)Cc4ccccc4)c3)cc2)cc1 [Example 4-103] |

Source: US20060122181A1, “Heteroaromatic pentacyclic compound and medicinal use thereof” (Japan Tobacco Inc., priority 2003, published 2006)
